Values after ≈ are worked out from the molar mass of the structure shown.
Experiments:
Assay in all cases: ≥ marks a high value that may be exact or a test limit, other limits are often not marked, values filed in µg/mL are converted to µM
[1] = system: Escherichia coli ATCC 25726
[2] = system: Staphylococcus aureus ATCC 25923
[3] = system: Candida albicans ATCC 90028
[4] = system: Escherichia coli ATCC 25922
[5] = system: Staphylococcus aureus NCTC 8325
[6] = system: Staphylococcus aureus ATCC 43300
[7] = system: Staphylococcus aureus ATCC 6538
[8] = system: Bacillus subtilis ATCC 6633
[9] = system: Escherichia coli ATCC 8739

Row | Structure (SMILES) | MIC [3] | MIC [4] | MIC [5] | further results
1 | CC[C@H](C)[C@H](NC(=O)[C@H](CCC(=O)O)NC(=O)[C@H](CO)NC(=O)[C@H](C)NC(=O)[C@H](CC(C)C)NC(=O)[C@H](C)NC(=O)[C@H](CCC(N)=O)NC(=O)CNC(=O)[C@H](Cc1ccccc1)NC(=O)[C@H](CCCCN)NC(=O)[C@H](CCCCN)NC(=O)[C@H](C)NC(=O)[C@H](CO)NC(=O)[C@H](Cc1cnc[nH]1)NC(=O)[C@H](CC(C)C)NC(=O)[C@H](Cc1ccccc1)NC(=O)[C@H](CCCCN)NC(=O)CNC(=O)[C@@H](NC(=O)CN)C(C)C)C(=O)N[C@@H](CCSC)C(=O)N[C@@H](CCCCN)C(=O)N[C@@H](CO)C(=O)O [GVGKFLHSAKKFGQALASEIMKS] | – | – | – | MIC [1]: ≥ 100 µM; MIC [2]: > 100 µM
2 | CC[C@H](C)[C@H](NC(=O)CNC(=O)[C@H](CC(N)=O)NC(=O)[C@H](CC(C)C)NC(=O)[C@H](CC(C)C)NC(=O)[C@H](CCCCN)NC(=O)CNC(=O)[C@@H](NC(=O)[C@@H](NC(=O)[C@@H]1CCCN1C(=O)[C@H](CC(C)C)NC(=O)[C@@H](NC(=O)[C@@H](NC(=O)[C@@H]1CCCN1C(=O)[C@H](CC(C)C)NC(=O)[C@@H](N)Cc1ccccc1)C(C)C)[C@@H](C)CC)C(C)C)[C@@H](C)CC)C(=O)N[C@@H](CC(C)C)C(N)=O [FLPVILPVIGKLLNGIL] | ≥ 50 µM | > 50 µM | 25 µM (≈ 45.5 µg/mL) | –
3 | CC[C@H](C)[C@@H]1NC(=O)[C@H](C)NC(=O)[C@@H](NC(=O)[C@H](Cc2ccccc2)NC(=O)[C@@H](NC(=O)[C@H](CCCCN)NC(=O)[C@@H]2CCCN2C(=O)[C@H](CC(C)C)NC(=O)[C@H](Cc2ccccc2)NC(=O)[C@H](CCCCN)NC(=O)[C@H](C)NC(=O)[C@H](C)NC(=O)[C@@H](NC(=O)CNC(=O)[C@H](C)NC(=O)[C@@H](NC(=O)[C@@H](NC(=O)[C@@H]2CCCN2C(=O)[C@H](CC(C)C)NC(=O)[C@@H](N)Cc2ccccc2)C(C)C)[C@@H](C)CC)C(C)C)[C@@H](C)CC)CSSC[C@@H](C(=O)O)NC(=O)[C@H](CCCCN)NC(=O)[C@H](CCCCN)NC(=O)[C@H]([C@@H](C)O)NC1=O [FLPVIAGVAAKFLPKIFCAITKKC] | 8 µM (≈ 20.6 µg/mL) | 7 µM (≈ 18 µg/mL) | 4 µM (≈ 10.3 µg/mL) | –
4 | CC[C@H](C)[C@H](NC(=O)CNC(=O)[C@H](CCCCN)NC(=O)[C@H](CC(C)C)NC(=O)[C@@H](NC(=O)[C@H](CC(C)C)NC(=O)[C@H](CC(N)=O)NC(=O)[C@H](CCCCN)NC(=O)[C@@H](NC(=O)[C@H](C)NC(=O)[C@H](CCCCN)NC(=O)CNC(=O)CNC(=O)[C@@H](NC(=O)[C@H](CCCCN)NC(=O)[C@H](CO)NC(=O)[C@H](Cc1ccccc1)NC(=O)[C@@H](NC(=O)[C@@H](N)CCCN=C(N)N)[C@@H](C)CC)[C@@H](C)CC)[C@@H](C)CC)[C@@H](C)CC)C(=O)N[C@@H](CCCCN)C(=O)N[C@@H](CC(N)=O)C(=O)N[C@H](C(=O)NCC(=O)N[C@@H](CCCCN)C(=O)N[C@@H](CCC(=O)O)C(=O)N[C@H](C(=O)NCC(=O)N[C@@H](CCSC)C(=O)N[C@@H](CC(=O)O)C(=O)N[C@H](C(=O)N[C@H](C(=O)N[C@@H](CCCN=C(N)N)C(=O)N[C@H](C(=O)NCC(=O)N[C@H](C(=O)N[C@@H](CC(=O)O)C(=O)N[C@H](C(=O)N[C@@H](C)C(=O)NCC(=O)N[C@H]1CSSC[C@@H](C(=O)O)NC(=O)[C@H](CCC(=O)O)NC(=O)CNC(=O)[C@H](CCCCN)NC(=O)[C@H]([C@@H](C)CC)NC(=O)[C@H](CCCCN)NC1=O)C(C)C)[C@@H](C)CC)[C@@H](C)O)[C@@H](C)CC)C(C)C)C(C)C)[C@@H](C)CC [RIFSKIGGKAIKNLILKGIKNIGKEVGMDVIRTGIDVAGCKIKGEC] | ≥ 50 µM | – | – | MIC [6]: 12.5 µM (≈ 61 µg/mL); MIC [7]: 3.1 µM (≈ 15.1 µg/mL); MIC [8]: 12.5 µM (≈ 61 µg/mL); MIC [9]: 3.1 µM (≈ 15.1 µg/mL)
5 | CC[C@H](C)[C@H](NC(=O)[C@H](C)NC(=O)[C@H](CC(C)C)NC(=O)[C@H](CC(=O)O)NC(=O)[C@H](CCCCN)NC(=O)[C@H](Cc1ccccc1)NC(=O)[C@@H](NC(=O)[C@@H](NC(=O)[C@H](CC(C)C)NC(=O)[C@H](Cc1ccccc1)NC(=O)[C@@H](N)CO)[C@@H](C)O)[C@@H](C)O)C(=O)N[C@@H](CCCCN)C(=O)N[C@@H](C)C(=O)N[C@@H](C)C(=O)N[C@@H](CCCCN)C(=O)N[C@@H](CO)C(=O)N[C@@H](C)C(=O)NCC(=O)N[C@@H](CCC(N)=O)C(=O)N[C@@H](CO)C(=O)N[C@H](C(=O)N[C@@H](CC(C)C)C(=O)N[C@@H](CO)C(=O)N[C@H](C(=O)N[C@@H](CC(C)C)C(=O)N[C@@H](CO)C(=O)N[C@H]1CSSC[C@@H](C(=O)O)NC(=O)[C@H]([C@@H](C)O)NC(=O)[C@H](CC(N)=O)NC(=O)[C@H](CO)NC(=O)[C@H](CC(C)C)NC(=O)[C@H](CCCCN)NC1=O)[C@@H](C)O)C(C)C [SFLTTFKDLAIKAAKSAGQSVLSTLSCKLSNTC] | – | – | – | MIC [7]: 6.3 µM (≈ 21.6 µg/mL); MIC [8]: 25 µM (≈ 85.8 µg/mL); MIC [9]: 12.5 µM (≈ 42.9 µg/mL)
6 | CC(C)C[C@H](NC(=O)[C@H](CC(C)C)NC(=O)[C@H](CC(N)=O)NC(=O)[C@H](C)NC(=O)CNC(=O)[C@H](Cc1ccccc1)NC(=O)[C@H](CCCCN)NC(=O)[C@H](CC(C)C)NC(=O)[C@H](C)NC(=O)[C@H](CCCCN)NC(=O)CNC(=O)[C@H](CC(C)C)NC(=O)[C@@H](NC(=O)[C@H](CO)NC(=O)CNC(=O)[C@H](Cc1ccccc1)NC(=O)CN)C(C)C)C(N)=O [GFGSVLGKALKFGANLL] | – | – | – | MIC [1]: ≥ 50 µM; MIC [2]: 12.5 µM (≈ 21.1 µg/mL)
7 | CC[C@H](C)[C@H](NC(=O)[C@H](CC(C)C)NC(=O)[C@H](CCCN=C(N)N)NC(=O)CNC(=O)[C@@H](NC(=O)[C@@H](NC(=O)[C@@H]1CCCN1C(=O)[C@H](CC(C)C)NC(=O)[C@@H](N)Cc1ccccc1)[C@@H](C)CC)C(C)C)C(=O)N[C@@H](CO)C(=O)NCC(=O)N[C@@H](CC(C)C)C(=O)N[C@@H](CC(C)C)C(N)=O [FLPIVGRLISGLL] | – | 125 µM (≈ 175 µg/mL) | 15 µM (≈ 21 µg/mL) | –
8 | CC[C@H](C)[C@H](NC(=O)CNC(=O)[C@@H](NC(=O)[C@H](CCCN=C(N)N)NC(=O)[C@@H](NC(=O)[C@H](CC(C)C)NC(=O)[C@H](CC(=O)O)NC(=O)[C@H](CCSC)NC(=O)CNC(=O)[C@H](C)NC(=O)[C@H](CCC(=O)O)NC(=O)[C@H](CCCCN)NC(=O)CNC(=O)[C@@H](NC(=O)[C@@H](NC(=O)[C@H](CCCCN)NC(=O)[C@@H](NC(=O)[C@@H](NC(=O)[C@H](CC(N)=O)NC(=O)[C@H](Cc1ccccc1)NC(=O)[C@@H](NC(=O)CNC(=O)[C@@H](NC(=O)[C@H](CCCCN)NC(=O)[C@H](C)NC(=O)[C@H](CCCCN)NC(=O)[C@H](CCCCN)NC(=O)[C@H](CCCCN)NC(=O)[C@H](CC(N)=O)NC(=O)[C@@H](NC(=O)[C@H](CCCCN)NC(=O)[C@@H]1CCCN1C(=O)[C@H](Cc1ccccc1)NC(=O)[C@H](CC(C)C)NC(=O)CN)[C@@H](C)CC)[C@@H](C)O)C(C)C)[C@@H](C)CC)[C@@H](C)CC)[C@@H](C)O)C(C)C)[C@@H](C)CC)[C@@H](C)O)C(=O)N[C@@H](CC(=O)O)C(=O)N[C@H](C(=O)N[C@H](C(=O)NCC(=O)N[C@H]1CSSC[C@@H](C(=O)O)NC(=O)[C@H](CCC(=O)O)NC(=O)CNC(=O)[C@H](CCCCN)NC(=O)[C@H]([C@@H](C)CC)NC(=O)[C@H](CCCCN)NC1=O)[C@@H](C)CC)[C@@H](C)O [GLFPKINKKKAKTGVFNIIKTVGKEAGMDLIRTGIDTIGCKIKGEC] | – | 1 µM (≈ 4.93 µg/mL) | 12 µM (≈ 59.2 µg/mL) | –
9 | CC[C@H](C)[C@@H]1NC(=O)[C@H](C)NC(=O)[C@@H](NC(=O)[C@@H](NC(=O)[C@@H](NC(=O)[C@H](CCCCN)NC(=O)[C@H](C)NC(=O)[C@H](C)NC(=O)[C@H](CCSC)NC(=O)CNC(=O)[C@H](C)NC(=O)[C@@H](NC(=O)[C@@H](NC(=O)[C@@H]2CCCN2C(=O)[C@H](Cc2ccccc2)NC(=O)[C@@H](N)Cc2ccccc2)[C@@H](C)CC)[C@@H](C)CC)C(C)C)[C@@H](C)CC)CSSC[C@@H](C(=O)O)NC(=O)[C@H](CCCCN)NC(=O)[C@H](CCCCN)NC(=O)[C@H]([C@@H](C)O)NC1=O [FFPIIAGMAAKVICAITKKC] | 3 µM (≈ 6.37 µg/mL) | 13 µM (≈ 27.6 µg/mL) | 3 µM (≈ 6.37 µg/mL) | –
10 | CC[C@H](C)[C@H](NC(=O)[C@H](C)NC(=O)[C@H](CC(=O)O)NC(=O)[C@H](CC(C)C)NC(=O)[C@H](CC(C)C)NC(=O)CN)C(=O)N[C@@H](CCCCN)C(=O)N[C@@H](CC(=O)O)C(=O)N[C@H](C(=O)N[C@@H](C)C(=O)N[C@@H](CCC(N)=O)C(=O)N[C@@H](CC(N)=O)C(=O)N[C@@H](CC(C)C)C(=O)N[C@@H](Cc1ccccc1)C(=O)N[C@@H](C)C(=O)N[C@@H](CC(N)=O)C(=O)N[C@H](C(=O)N[C@@H](CC(C)C)C(=O)N[C@@H](CC(=O)O)C(=O)N[C@@H](CCCCN)C(=O)N[C@H](C(=O)N[C@@H](CCCCN)C(=O)N[C@H]1CSSC[C@@H](C(=O)O)NC(=O)[C@H](CCCCN)NC(=O)[C@H]([C@@H](C)O)NC(=O)[C@H](Cc2ccccc2)NC(=O)[C@H](CCCCN)NC1=O)[C@@H](C)CC)C(C)C)[C@@H](C)O [GLLDAIKDTAQNLFANVLDKIKCKFTKC] | ≥ 50 µM | 50 µM (≈ 155 µg/mL) | ≥ 50 µM | –
11 | CC[C@H](C)[C@@H]1NC(=O)[C@H](CCCCN)NC(=O)[C@@H](NC(=O)[C@H](CCCCN)NC(=O)[C@H](CC(C)C)NC(=O)[C@H](CCCCN)NC(=O)[C@H](CC(=O)O)NC(=O)[C@H](CC(C)C)NC(=O)[C@H](CC(C)C)NC(=O)[C@@H](NC(=O)[C@@H](NC(=O)[C@H](C)NC(=O)[C@@H](NC(=O)[C@H](CC(N)=O)NC(=O)[C@H](CCCCN)NC(=O)[C@H](C)NC(=O)[C@@H](NC(=O)[C@H](CC(N)=O)NC(=O)[C@H](CCCCN)NC(=O)[C@H](C)NC(=O)[C@@H](NC(=O)[C@H](CC(=O)O)NC(=O)[C@H](CCSC)NC(=O)[C@H](Cc2ccccc2)NC(=O)CN)[C@@H](C)O)C(C)C)C(C)C)C(C)C)[C@@H](C)O)CSSC[C@@H](C(=O)O)NC(=O)CNC(=O)CNC(=O)[C@H]([C@@H](C)O)NC1=O [GFMDTAKNVAKNVAVTLLDKLKCKITGGC] | ≥ 100 µM | – | – | MIC [6]: 100 µM (≈ 304 µg/mL); MIC [7]: 25 µM (≈ 75.9 µg/mL); MIC [8]: 12.5 µM (≈ 38 µg/mL); MIC [9]: ≥ 100 µM

— DBAASP
